Test results reported in PMC12396409, “Screening and hit evaluation of a microbial metabolite library against the pathogenic Plasmodium falciparum and Toxoplasma gondii parasites” (International Journal for Parasitology: Drugs and Drug …, 2025).
Like-named read-outs stand apart in the source and are kept apart here.

Experiments:
[1] = system: P. falciparum 3D7 parasites; experiment: P. falciparum growth inhibition assay, 2-cycle (120 h treatment), delayed-death screen and dose-response; type: cell-based, Plasmodium falciparum; conditions: for activity at 2 µg/mL: Plasmodium falciparum
[2] = system: T. gondii RH strain (RH-Tub-eYFP) tachyzoites; experiment: microbe, parasite or virus in culture; type: cell-based, Toxoplasma gondii; conditions: T. gondii, 72 h; for percent parasite growth at 2 µg/mL: Toxoplasma gondii
[3] = system: P. falciparum 3D7 parasites; experiment: P. falciparum growth inhibition assay, 1-cycle (72 h treatment), SYBR DNA staining (library screen at 2 μg/mL and dose-response); type: cell-based, Plasmodium falciparum; conditions: for activity at 2 µg/mL: Plasmodium falciparum
[4] = P. falciparum, 120 h, parasite screen 2 μg/mL, % growth, replicate 2
[5] = parasite screen 2 μg/mL, % growth, replicate 2
[6] = P. falciparum, 72 h, parasite screen 2 μg/mL, % growth, replicate 2
[7] = P. falciparum, 120 h, screen at 2 μg/mL, replicate 1
[8] = P. falciparum, 120 h, screen at 2 μg/mL, replicate 2
[9] = P. falciparum, 72 h, screen at 2 μg/mL, replicate 1
[10] = P. falciparum, 72 h, screen at 2 μg/mL, replicate 2
[11] = screen at 2 μg/mL, replicate 1, read-out: Tg_72h_%Growth_Rep1
[12] = screen at 2 μg/mL, replicate 2, read-out: Tg_72h_%Growth_Rep2

## COc1ccc2c(c1)N(C(C)=O)[C@H]1[C@@H]3CO[C@H](C)[C@@H]4CN5CC[C@]21[C@@H]5C[C@H]34 [Strychnospermine]
[1]; P. falciparum, 120 h, parasite screen 2 μg/mL, % growth, replicate 1
  Pf_120h_%Growth_Rep1: 157.71%
[1]; [4]
  Pf_120h_%Growth_Rep2: 76.73%
[2]; parasite screen 2 μg/mL, % growth, replicate 1
  Tg_72h_%Growth_Rep1: 96.72%
[2]; [5]
  Tg_72h_%Growth_Rep2: 111.43%
[3]; P. falciparum, 72 h, parasite screen 2 μg/mL, % growth, replicate 1
  Pf_72h_%Growth_Rep1: 72.81%
[3]; [6]
  Pf_72h_%Growth_Rep2: 85.90%

## C[C@@]12c3ccc4c(c3C(=O)c3occ(c31)[C@@H](O)C[C@H]2O)CCC4=O [Demethoxyviridiol]
[1]; [7]
  Pf_120h_%Growth_Rep1: 76.39%
[1]; [8]
  Pf_120h_%Growth_Rep2: 74.74%
[2]; screen at 2 μg/mL, replicate 1
  Tg_72h_%Growth_Rep1: 264.14%
[2]; screen at 2 μg/mL, replicate 2
  Tg_72h_%Growth_Rep2: 123.20%
[3]; [9]
  Pf_72h_%Growth_Rep1: 73.11%
[3]; [10]
  Pf_72h_%Growth_Rep2: 74.92%

## C=C1[C@@H](C)[C@H]2[C@H](Cc3ccccc3)NC(=O)[C@]23OC(=O)/C=C/C(=O)CCC[C@@H](C)C/C=C/[C@H]3[C@@H]1O [Cytochalasin A]
[1]; [7]
  Pf_120h_%Growth_Rep1: 0.48%
[1]; [8]
  Pf_120h_%Growth_Rep2: 6.78%
[2]; screen at 2 μg/mL, replicate 1
  Tg_72h_%Growth_Rep1: 2.84%
[2]; screen at 2 μg/mL, replicate 2
  Tg_72h_%Growth_Rep2: 2.30%
[3]; [9]
  Pf_72h_%Growth_Rep1: 14.20%
[3]; [10]
  Pf_72h_%Growth_Rep2: 12.98%

## CSc1cc(=O)n2c3ccccc3c3ccnc1c32 [BIA-M1959]
[1]; P. falciparum 3D7, 120 h, parasite screen at 2 μg/mL, % growth, replicate 1
  Pf_120h_%Growth_Rep1: 177.81%
[1]; P. falciparum 3D7, 120 h, parasite screen at 2 μg/mL, % growth, replicate 2
  Pf_120h_%Growth_Rep2: 100.67%
[2]; parasite screen at 2 μg/mL, % growth, replicate 1
  Tg_72h_%Growth_Rep1: 88.90%
[2]; parasite screen at 2 μg/mL, % growth, replicate 2
  Tg_72h_%Growth_Rep2: 111.29%
[3]; P. falciparum 3D7, 72 h, parasite screen at 2 μg/mL, % growth, replicate 1
  Pf_72h_%Growth_Rep1: 72.92%
[3]; P. falciparum 3D7, 72 h, parasite screen at 2 μg/mL, % growth, replicate 2
  Pf_72h_%Growth_Rep2: 92.02%

## CO[C@H]1/C=C\C=C(\C)C[C@H](C)[C@H](O)[C@H](C)/C=C(C)\C=C(\C)C(=O)O[C@@H]1[C@@H](C)[C@@H](O)[C@H](C)[C@@]1(O)C[C@@H](OC(=O)/C=C/C(=O)O)[C@H](C)[C@@H](C(C)C)O1 [TS 155-2]
[1]; [7]
  Pf_120h_%Growth_Rep1: 23.01%
[1]; [8]
  Pf_120h_%Growth_Rep2: 6.11%
[2]; screen at 2 μg/mL, replicate 1
  Tg_72h_%Growth_Rep1: 1.68%
[2]; screen at 2 μg/mL, replicate 2
  Tg_72h_%Growth_Rep2: -0.35%
[3]; [9]
  Pf_72h_%Growth_Rep1: 3.32%
[3]; [10]
  Pf_72h_%Growth_Rep2: -2.51%

## CC[C@@H](C(=O)[C@@H](C)[C@@H](O)[C@H](C)[C@@H]1O[C@@H]([C@@H](CC)C(=O)O)CC[C@@H]1C)[C@H]1O[C@]2(C=C[C@@H](O)[C@]3(CC[C@@](C)([C@H]4CC[C@](O)(CC)[C@H](C)O4)O3)O2)[C@H](C)C[C@@H]1C [Salinomycin]
[1]; [4]
  Pf_120h_%Growth_Rep2: 1.02%
[1]; 3D7, 120 h, P. falciparum, 120 h, parasite screen 2 μg/mL, % growth, replicate 1, read-out: Pf_120h_%Growth_Rep1
  activity at 2 µg/mL: 13.6%
[2]; [5]
  Tg_72h_%Growth_Rep2: 0.21%
[2]; parasite screen 2 μg/mL, % growth, replicate 1, read-out: Tg_72h_%Growth_Rep1
  percent parasite growth at 2 µg/mL: 2.46%
[3]; [6]
  Pf_72h_%Growth_Rep2: -1.92%
[3]; 3D7, 72 h, P. falciparum, 72 h, parasite screen 2 μg/mL, % growth, replicate 1, read-out: Pf_72h_%Growth_Rep1
  activity at 2 µg/mL: 3.76%

## CO[C@@H]1[C@H](O)C[C@@H](O[C@@H]2C[C@H](Oc3cc4cc5c(c(O)c4c(O)c3C)C(=O)[C@@H](O[C@H]3C[C@@H](O[C@H]4C[C@@H](O[C@H]6C[C@](C)(O)[C@@H](OC(C)=O)[C@H](C)O6)[C@H](O)[C@@H](C)O4)[C@H](O)[C@@H](C)O3)[C@H]([C@H](OC)C(=O)[C@@H](O)[C@@H](C)O)C5)O[C@H](C)[C@@H]2OC(C)=O)O[C@@H]1C [Chromomycin A3]
[1]; 3D7, 120 h, P. falciparum, 120 h, screen at 2 μg/mL, replicate 1, read-out: Pf_120h_%Growth_Rep1
  activity at 2 µg/mL: 2.76%
[1]; 3D7, 120 h, P. falciparum, 120 h, screen at 2 μg/mL, replicate 2, read-out: Pf_120h_%Growth_Rep2
  activity at 2 µg/mL: -4.9%
[2]; [11]
  percent parasite growth at 2 µg/mL: 1.51%
[2]; [12]
  percent parasite growth at 2 µg/mL: 1.99%
[3]; 3D7, 72 h, P. falciparum, 72 h, screen at 2 μg/mL, replicate 1, read-out: Pf_72h_%Growth_Rep1
  activity at 2 µg/mL: -1.98%
[3]; 3D7, 72 h, P. falciparum, 72 h, screen at 2 μg/mL, replicate 2, read-out: Pf_72h_%Growth_Rep2
  activity at 2 µg/mL: 0.17%

## CC[C@H](C)C(=O)[C@@H](C)C1=CC(=O)C2=C(O[C@]3(C)CC[C@H]4O[C@@H](C(C)(C)O)CC[C@]4(C)[C@H]3C2)C1=O [Cochlioquinone B]
[1]; 3D7, P. falciparum, 120 h, screen at 2 μg/mL, replicate 1, read-out: Pf_120h_%Growth_Rep1
  activity at 2 µg/mL: 47%
[1]; 3D7, P. falciparum, 120 h, screen at 2 μg/mL, replicate 2, read-out: Pf_120h_%Growth_Rep2
  activity at 2 µg/mL: 44.2%
[2]; [11]
  percent parasite growth at 2 µg/mL: 110%
[2]; [12]
  percent parasite growth at 2 µg/mL: 83.8%
[3]; 3D7, P. falciparum, 72 h, screen at 2 μg/mL, replicate 1, read-out: Pf_72h_%Growth_Rep1
  activity at 2 µg/mL: 61.4%
[3]; 3D7, P. falciparum, 72 h, screen at 2 μg/mL, replicate 2, read-out: Pf_72h_%Growth_Rep2
  activity at 2 µg/mL: 52.9%

## CC[C@@H](C)/C=C(C)/C=C/C(=O)c1c(O)c(-c2ccc(O)cc2)cn(O)c1=O [Tenellin]
[1]; [7]
  Pf_120h_%Growth_Rep1: 76.98%
[1]; [8]
  Pf_120h_%Growth_Rep2: 107.08%
[2]; screen at 2 μg/mL, replicate 1
  Tg_72h_%Growth_Rep1: -2.05%
[2]; screen at 2 μg/mL, replicate 2
  Tg_72h_%Growth_Rep2: 1.18%
[3]; [9]
  Pf_72h_%Growth_Rep1: 58.91%
[3]; [10]
  Pf_72h_%Growth_Rep2: 96.26%
